Reference: PubChem BioAssay (NCI)
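Exposure lasted 48 hours, with cells grown in 96-well plates and compounds tested at five concentrations. GI50 is the concentration that inhibits growth by half. TGI is the concentration that stops growth completely.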

Key:
Experiment in all cases: NCI-60 cell line screen, 48 h
KM12 colon = system: KM12 colon
MALME-3M melanoma = system: MALME-3M melanoma
UO-31 renal = system: UO-31 renal
ACHN renal = system: ACHN renal
NCI-H522 lung = system: NCI-H522 lung
A549 NSCLC = system: A549 NSCLC
SW-620 colon = system: SW-620 colon
HS 578T breast = system: HS 578T breast
PC-3 prostate = system: PC-3 prostate
MDA-N = system: MDA-N

Row | Structure (SMILES) | TGI (KM12 colon) [µM] | TGI (MALME-3M melanoma) [µM] | TGI (UO-31 renal) [µM] | TGI (ACHN renal) [µM] | TGI (NCI-H522 lung) [µM] | TGI (A549 NSCLC) [µM] | TGI (SW-620 colon) [µM] | TGI (HS 578T breast) [µM] | TGI (PC-3 prostate) [µM] | TGI (MDA-N) [µM] | GI50 (ACHN renal) [nM] | GI50 (HS 578T breast) [nM] | GI50 (SW-620 colon) [nM] | GI50 (KM12 colon) [nM] | GI50 (UO-31 renal) [nM] | GI50 (NCI-H522 lung) [nM] | GI50 (PC-3 prostate) [nM] | GI50 (A549 NSCLC) [nM]
1 | COc1ccc(C2NC3=C(CCCC3)N2)cc1 | > 100 | > 100 | > 100 | > 100 | > 100 | > 100 |  |  |  |  |  |  |  |  |  |  |  | 
2 | CC1=C(C(=O)NCCCN(CCO)CCO)CC(C(=O)NCCCN(CCO)CCO)=C(C)N1 | > 100 |  | > 100 | > 100 | > 100 | > 100 | > 100 | > 100 | > 100 | > 100 |  |  |  |  |  |  |  | 
3 | Cc1nc(-n2nc(-c3ccccc3)cc2-c2ccccc2)sc1C(/C=C/c1ccc([N+](=O)[O-])cc1)=N/NC(N)=S | > 100 | > 100 | > 100 | > 100 |  | > 100 |  |  |  |  |  |  |  |  |  |  |  | 
4 | CCOC(=O)c1cc([N+](=O)[O-])cc([N+](=O)[O-])c1Sc1ncnc2nc[nH]c12 | 18.1 |  | 3.55 | 4.17 | 4.39 | 32.5 | > 100 | 71.2 | 9.57 | 5.28 |  |  |  |  |  |  |  | 
5 | Nc1ccn(CCCC(c2ccccc2)P(=O)(O)O)c(=O)n1 (stereo not drawn) | > 100 | > 100 | > 100 | > 100 | > 100 | > 100 | > 100 |  |  |  |  |  |  |  |  |  |  | 
6 | COC(=O)CC1NC(=O)C1C(C)(OC)OC (stereo not drawn) |  | > 100 | > 100 | > 100 |  | > 100 | > 100 |  |  |  |  |  |  |  |  |  |  | 
7 | Cn1c(=O)oc2cc(C(=S)N3CCCCC3)ccc21 | > 100 | > 100 |  | > 100 |  |  | > 100 | > 100 | > 100 | > 100 |  |  |  |  |  |  |  | 
8 | O=C(CC(=O)N1N=C(c2ccccc2)C(N=Nc2ccccc2Cl)C1=O)Nc1ccccc1Cl (stereo not drawn) | > 100 |  | > 100 | 99.6 | > 100 | > 100 | > 100 |  |  |  |  |  |  |  |  |  |  | 
9 | CN(C)CCNC(=O)c1cccc2[nH]c(-c3ccc(Cl)cc3)nc12 | 20.9 | 19.9 | 12.1 |  | 19.9 | 17.7 | 18.3 |  |  |  |  |  |  |  |  |  |  | 
10 | CCOC(=O)C1=C(O)c2ccc(OC)cc2C(=O)C1=O | > 100 | > 100 | > 100 | > 100 | > 100 | > 100 | > 100 |  |  |  |  |  |  |  |  |  |  | 
11 | N/C(=N/N=C/c1cccc(F)c1)NO | > 100 | > 100 | > 100 | > 100 | 96.1 | 98.7 | > 100 |  |  |  |  |  |  |  |  |  |  | 
12 | Cc1cc(C)c(C(=O)/C(=C/c2ccccc2)c2ccccc2)c(C)c1 | > 100 | > 100 | > 100 | > 100 | 77.2 | > 100 | > 100 |  |  |  |  |  |  |  |  |  |  | 
13 | CCSc1[nH]c(NC(=NC(C)C)NC(=O)c2ccccc2)c(C(N)=O)c1C(N)=O | > 10 | > 10 |  |  |  | > 10 | > 10 |  | > 10 | > 10 |  |  |  |  |  |  |  | 
14 | CC(C)OC(=O)c1cccnc1/C=N/O | > 100 | > 100 | > 100 | > 100 | > 100 | > 100 | > 100 |  |  |  |  |  |  |  |  |  |  | 
15 | COc1cc(CC(=O)c2cc3c(cc2-c2ccccc2)OCO3)cc(OC)c1OC | > 100 | > 100 | > 100 | > 100 | > 100 | > 100 | > 100 |  |  |  |  |  |  |  |  |  |  | 
16 | c1ccc(Sc2nc(Sc3ccccc3)nc(Sc3ccccc3)n2)cc1 | 29.4 | > 100 | > 100 | > 100 | > 100 | > 100 |  | 75.4 | > 100 |  |  |  |  |  |  |  |  | 
17 | O=[N+]([O-])c1ccc2c(N=Nc3ccc4ccccc4c3O)c(O)cc(S(=O)(=O)O)c2c1 | > 100 | 85 | 47.4 | 50.3 | > 57.3 | > 100 | > 100 | > 100 | > 100 |  |  |  |  |  |  |  |  | 
18 | CNC(=O)c1cc(Oc2cccc3nc(NC(=O)Nc4ccc(F)cc4F)ccc23)ccn1 |  |  |  | > 50 |  |  |  | 3.99 |  |  | 2130 | 1400 |  |  |  |  |  | 
19 | Brc1ccc(C[N+]23CN4CN(CN(C4)C2)C3)cc1 | > 100 | 71.5 | > 100 | > 100 | 32.1 | > 100 | 82.3 |  |  |  |  |  |  |  |  |  |  | 
20 | O=c1cc(NNc2cccc(F)c2)[nH]c(=S)[nH]1 | > 100 | > 100 | > 100 | > 100 |  | > 100 | > 100 | > 100 | > 100 | > 100 |  |  |  |  |  |  |  | 
21 | COc1ccc(N2C(=O)C3C=CC(n4[nH]c(=O)n(Cc5ccccc5)c4=O)CC3C2=O)cc1 (stereo not drawn) | > 100 | > 100 | > 100 | > 100 | > 100 | > 100 | > 100 |  |  |  |  |  |  |  |  |  |  | 
22 | O=C(NCCC1CN(S(=O)(=O)C(F)(F)F)c2ccccc21)OCc1ccccc1 (stereo not drawn) | > 100 | > 100 | > 100 | > 100 | > 100 | > 100 | > 100 | > 100 | > 100 |  |  |  |  |  |  |  |  | 
23 | CCOC(=O)C1=C(C)N(c2ccc(Cl)cc2)C2(O)C=CC(Nc3ccc(Cl)cc3)=C3C(=O)N(c4ccccc4)C(=O)C312 (stereo not drawn) | 23.1 | 33.7 | 20.3 | 20 | 5.25 | > 100 | 14.6 | > 100 | 22.8 |  |  |  |  |  |  |  |  | 
24 | O=C(CSc1nnc(-c2ccc(N=Cc3ccc(Cl)cc3)cc2)o1)Nc1cccc([N+](=O)[O-])c1 | > 100 | > 100 | > 100 | > 100 | > 100 | > 100 | > 100 |  |  |  |  |  |  |  |  |  |  | 
25 | COc1c(C)c(C/C=C(\C)CCCCO)c(OC)c2ccccc12 | 54.9 |  | > 100 | > 100 | 42.3 | > 100 | > 100 | > 100 | > 100 | > 100 |  |  |  |  |  |  |  | 
26 | COC1=CC(c2ccc[nH]2)=N/C1=C\c1[nH]c(C)c(C)c1CCC(=O)OCc1ccccc1 | 1.8 |  | 0.459 |  | 1.62 | 11.1 | 1.62 | 1.68 | 5.87 |  |  | 289 | 322 | 242 | 209 | 256 | 277 | 602
